Results as given in the supplement of paper PMC10307832.

Columns and labels:
Test in all cases: relative viability (nuclei count vs DMSO), 5 days (fraction); higher = more cells survive
[1] = compound: C1=CC=C2C(=C1)C=CC(=C2SSC3=C(C=CC4=CC=CC=C43)O)O [IPA-3] + CCNC(=O)c1noc(-c2cc(C(C)C)c(O)cc2O)c1-c1ccc(CN2CCOCC2)cc1 [Luminespib] (partner 0.01 µM)
Outline: (§1)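 Relative viability equals treated-well nuclei counts divided by vehicle-well nuclei counts. Counts came from 4× images of lung cancer cell lines grown in 1536-well plates for 5 days after pin-tool dosing on the day after seeding. Dosing used one drug alone or a fixed anchor-drug dose plus five library-drug doses (not always all listed) in √10 steps, and values are medians of duplicate plates.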

[2] = compound: Cc1ccc(-n2nc(C(C)(C)C)cc2NC(=O)Nc2ccc(OCCN3CCOCC3)c3ccccc23)cc1 [Doramapimod] + Nc1nc2[nH]cc(CCc3ccc(C(=O)N[C@@H](CCC(=O)O)C(=O)O)cc3)c2c(=O)[nH]1 [Pemetrexed] (partner 0.2 µM)
Outline: as §1

[3] = compound: Cc1ccc(-n2nc(C(C)(C)C)cc2NC(=O)Nc2ccc(OCCN3CCOCC3)c3ccccc23)cc1 [Doramapimod] + COc1cc2c(Oc3ccc(NC(=O)C4(C(=O)Nc5ccc(F)cc5)CC4)cc3F)ccnc2cc1OCCCN1CCOCC1 [Foretinib] (partner 0.25 µM)
Outline: as §1

[4] = compound: Cn1c(Nc2ccc(C(F)(F)F)cc2)nc2cc(Oc3ccnc(-c4ncc(C(F)(F)F)[nH]4)c3)ccc21 [RAF265] + Nc1nc2[nH]cc(CCc3ccc(C(=O)N[C@@H](CCC(=O)O)C(=O)O)cc3)c2c(=O)[nH]1 [Pemetrexed] (partner 0.2 µM)
Outline: as §1

UMC-11
relative viability ([1]; first compound 0.2 µM): 1.12 | relative viability ([1]; first compound 0.6325 µM): 0.94 | relative viability ([1]; first compound 2 µM): 1.05 | relative viability ([1]; first compound 6.325 µM): 1.06 | relative viability ([1]; first compound 20 µM): 1.53 | relative viability ([2]; first compound 0.02 µM): 0.711 | relative viability ([2]; first compound 0.06325 µM): 0.739 | relative viability ([2]; first compound 0.2 µM): 0.75 | relative viability ([2]; first compound 0.6325 µM): 0.708 | relative viability ([2]; first compound 2 µM): 0.743 | relative viability ([3]; first compound 0.02 µM): 0.954 | relative viability ([3]; first compound 0.06325 µM): 0.936 | relative viability ([3]; first compound 0.2 µM): 0.932 | relative viability ([3]; first compound 0.6325 µM): 0.988 | relative viability ([3]; first compound 2 µM): 0.982 | relative viability ([4]; first compound 0.01 µM): 0.689 | relative viability ([4]; first compound 0.03162 µM): 0.854 | relative viability ([4]; first compound 0.1 µM): 0.764 | relative viability ([4]; first compound 0.3162 µM): 0.761 | relative viability ([4]; first compound 1 µM): 0.639
